Reference: patent publication US9255080B2, “Quinazolinedione derivatives as PARP inhibitors” (Janssen Pharmaceutica NV, priority 2004, dated 2016)
Where two headings read alike, the source gives them in different places.

Experiments:
[1] = biological target: T1, TANK-2 enzyme (Homo sapiens, UniProt Q9H2K2); assay: In vitro scintillation proximity assay (SPA) for TANK-2 inhibitory activity; format: biochemical
T1 construct: made in house
T1 sequence (Q9H2K2 1-1166): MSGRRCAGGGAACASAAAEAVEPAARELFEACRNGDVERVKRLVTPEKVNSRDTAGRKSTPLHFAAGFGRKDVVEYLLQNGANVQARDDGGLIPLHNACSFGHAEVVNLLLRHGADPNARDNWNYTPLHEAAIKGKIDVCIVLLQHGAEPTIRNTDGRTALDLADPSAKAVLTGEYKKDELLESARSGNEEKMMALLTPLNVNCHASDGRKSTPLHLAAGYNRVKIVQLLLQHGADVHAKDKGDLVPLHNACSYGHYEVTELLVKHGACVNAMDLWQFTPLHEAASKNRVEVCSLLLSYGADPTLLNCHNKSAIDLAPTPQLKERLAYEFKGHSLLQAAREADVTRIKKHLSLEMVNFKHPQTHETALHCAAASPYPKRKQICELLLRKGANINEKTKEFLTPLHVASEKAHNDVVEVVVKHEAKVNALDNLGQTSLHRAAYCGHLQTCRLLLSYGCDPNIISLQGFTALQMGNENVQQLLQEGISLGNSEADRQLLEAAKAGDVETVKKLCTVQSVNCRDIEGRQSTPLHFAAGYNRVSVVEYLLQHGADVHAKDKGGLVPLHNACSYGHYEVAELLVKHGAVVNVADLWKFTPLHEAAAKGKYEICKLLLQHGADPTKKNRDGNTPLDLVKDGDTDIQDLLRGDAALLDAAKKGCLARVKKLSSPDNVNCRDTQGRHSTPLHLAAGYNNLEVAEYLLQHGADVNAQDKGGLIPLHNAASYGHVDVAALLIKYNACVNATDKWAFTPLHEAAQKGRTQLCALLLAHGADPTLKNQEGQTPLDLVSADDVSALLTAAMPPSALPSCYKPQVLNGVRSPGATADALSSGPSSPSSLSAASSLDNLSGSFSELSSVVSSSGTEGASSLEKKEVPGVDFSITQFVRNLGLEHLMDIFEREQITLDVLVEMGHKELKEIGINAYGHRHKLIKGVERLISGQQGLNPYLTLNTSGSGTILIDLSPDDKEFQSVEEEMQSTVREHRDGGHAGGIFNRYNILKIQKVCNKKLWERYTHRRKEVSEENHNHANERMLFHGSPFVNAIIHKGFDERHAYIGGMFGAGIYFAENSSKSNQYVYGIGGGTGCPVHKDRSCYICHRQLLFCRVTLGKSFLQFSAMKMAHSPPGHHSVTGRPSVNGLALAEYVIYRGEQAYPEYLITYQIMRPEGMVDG
Method: In Vitro Scintillation Proximity Assay (SPA) for TANK-2 Inhibitory Activity
Compounds of the present invention were tested in an in vitro assay based on SPA technology with Ni Flash plates (96 or 384 well).
In principle, the assay relies upon SPA technology for the detection of auto-poly(ADP-ribosyl)ation of TANK-2 protein using [^3H]-nicotinamide adenine dinucleotide ([^3H]-NAD^+) as ADP-ribosyl donor.
A stock solution of [^3H]-NAD^+/NAD was made by adding 64.6 μl of [^3H]-NAD^+ (0.1 mCi/ml, supplier: Perkin Elmer) and 46.7 μl NAD-stock (10.7 mM, stored at −20° C., supplier Roche) to 1888.7 μl assay buffer (60 mM Tris/HCl, pH 7.4; 0.9 mM DTT; 6 mM MgCl2). The TANK-2 enzyme was produced as described in EP1238063. 60 μl of assay buffer, together with 1 μl of compound in DMSO, 20 μl of [^3H]-NAD^+/NAD and 20 μl of TANK-2 enzyme (final concentration 6 μg/ml) was added per well into a 96-well Ni-coated flash plate (Perkin Elmer). After incubation of the mixture for 120 min. at room temperature, the reaction was terminated by adding 60 μl of stopsolution (42.6 mg NAD in 6 ml H2O). The plates were covered with a plate sealer and placed in a TopCountNXT™ (Packard) for scintillation counting. Values were expressed as counts per minute (cpm). For each experiment, controls (containing TANK-2 enzyme and DMSO without compound), a blank incubation (containing DMSO but no TANK-2 enzyme or compound) and samples (containing TANK-2 enzyme and compound dissolved in DMSO) were run in parallel. All compounds tested were dissolved and eventually further diluted in DMSO. In first instance, compounds were tested at a concentration of 10^−5M. […] In each test, the blank value was subtracted from both the control and the sample values. The control sample represented maximal TANK-2 enzyme activity. For each sample, the amount of cpm was expressed as a percentage of the mean cpm value of the controls. When appropriate, IC50-values (concentration of the drug, needed to reduce the TANK-2 enzyme activity to 50% of the control) were computed using linear interpolation between the experimental points just above and below the 50% level. Herein the effects of test compounds are expressed as pIC50 (the negative log value of the IC50-value). As reference compounds, 3-aminobenzamide and 4-amino-1,8-naphthalimide were included to validate the SPA assay. Herein the assay was described using 96-well plates. In the assay using 384-well plates the same final concentrations were used and volumes were adapted.

[2] = auto-poly(ADP-ribosyl)ation, [3H]-NAD+, 96-well results if available, otherwise 384-well, read-out: in vitro SPA assay TANK-2 pIC50 (converted)

| Compound | IC50 [1, 2] | IC50 [1] | melting point |
| --- | --- | --- | --- |
| O=c1[nH]c(=O)n(CCCN2CCC(O)(c3ccc(Cl)cc3)CC2)c2ccccc12 [Compound 7] | > 10 µM |  |  |
| O=C(c1ccc(F)cc1)C1CCN(CCn2c(=O)[nH]c(=O)c3ccccc32)CC1 [Compound 10, 1-[2-[4-(4-fluorobenzoyl)-1-piperidinyl]ethyl]-2,4-(1H,3H)-quinazolinedione] | 7.19 µM |  |  |
| O=c1[nH]c(=O)n(C2CCN(CC(O)C3CCc4ccccc4O3)CC2)c2ccccc12 (stereo in doubt) [Compound 9, 1-[1-[(2S)-2-[(2R)-3,4-dihydro-2H-1-benzopyran-2-yl]-2-hydroxyethyl]-4-piperidinyl]-2,4(1H,3H)-quinazolinedione] | > 10 µM |  |  |
| O=c1[nH]c(=O)n(CCCN2CCC(c3c[nH]c4ccccc34)CC2)c2ccccc12 [Compound 3] |  | > 10 µM | 216.8 °C |
| O=c1[nH]c(=O)n(C2CCNCC2)c2ccccc12 [Compound 1] | > 10 µM |  | 253.7 °C |
| O=c1[nH]c(=O)n(C2CCN(CCCn3c(=O)[nH]c4ccccc43)CC2)c2ccccc12 [Compound 5] | 7.57 µM |  |  |
| O=c1[nH]c(=O)n(CCN2CCC(O)(c3ccc(Cl)cc3)CC2)c2ccccc12 [Compound 6] | 1.38 µM |  |  |
| O=C(c1ccc(F)cc1)C1CCN(CCCn2c(=O)[nH]c(=O)c3ccccc32)CC1 [Compound 11, 1-[3-[4-(4-fluorobenzoyl)-1-piperidinyl]propyl]-2,4-(1H,3H)-quinazolinedione] | > 10 µM |  |  |
| O=C(CCCN1CCC(n2c(=O)[nH]c(=O)c3ccccc32)CC1)c1ccc(F)cc1 [Compound 2] | > 10 µM |  | 195 °C |
